# Source: US20070191324A1, “Methods for treatment or prophylaxis of aldosterone-mediated pathogenic effects in a subject using an epoxy-steroidal aldosterone antagonist” (priority 1999, published 2007)
# Columns and labels:
# [1] = system: L-NAME/Angiotensin II/NaCl-treated rats; test: L-NAME/Angiotensin II/NaCl model of cardiac and renal injury (Example A-1); type: in vivo, Male Wistar rats; settings: Epl 100 mg/kg/day p.o., ALDO 40 μg/kg/day in adrenalectomized rats
# Experimental: Animals. Male Wistar rats (n=44), weighing 200 to 225 grams, and obtained from Charles River Laboratories (Wilmington, Mass.) were used in the study. All animals were housed in a room lighted 12 hours per day at an ambient temperature of 22±1° C. Animals were allowed one week to recover after arrival and had free access to Purina Lab Chow 5001 (Ralston Purina Inc, St. Louis, Mo.) and tap water until the initiation of the experiment. After initiation of the protocols, animals in all groups were placed in individual metabolic cages, handled and weighed daily. Twenty-four hour fluid intake, food intake and urine output were measured daily. […] On day 14 of L-NAME treatment, animals were decapitated, trunk blood was collected into chilled tubes containing ethylene diamine tetraacetic acid and the heart and kidneys were removed, blotted dry and immediately weighed. […] Drugs. Eplerenone was supplied by G.D. Searle Pharmaceuticals (St. […] Dexamethasone was dissolved in sesame oil and administered as a single subcutaneous dose (12 μg/kg/day) every day. This dose of dexamethasone has been reported to, maintain normal weight gain, glomerular filtration rate, and fasting plasma glucose and insulin levels in adrenalectomized rats. Stanton, B., Giebisch G et al. J. Clin. Invest 1985 75:1317-1326. The experiment was concluded on day 14 of L-NAME treatment. […] (Hou J et al. J. Clin. Invest 1995 96:2469-2477. […] This lower dose induced lesions in stroke-prone spontaneously hypertensive rats. (Rocha R et al. […] Dexamethasone, aldosterone and L-NAME were purchased from Sigma Chemical Co. (St. Louis, Mo.). […] Surgical Procedure. […] Bilateral adrenalectomy was performed using a dorsolumbar approach, making separate incisions on each side. […] No post operative deaths occurred. Assays and Analyses. Systolic blood pressure was measured in awake animals by tail-cuff plethysmography using a Natsume KN-210 manometer and tachometer (Peninsula Laboratories Inc, Belmont, Calif.). Rats were warmed at 37° C. for 10 minutes and allowed to rest quietly in a Lucite chamber before measurement of blood pressure. Urinary protein concentration was determined in urine collected on the last day of the experiment using the sulfosalicylic acid turbidity method. […] Plasma aldosterone concentration was determined using a standard radioimmunoassay-kit from Diagnostic Products Co. (Los Angeles, Calif.). Plasma renin activity (“PRA”) was determined by radioimmunoassay detection of generated angiotensin I (DiaSorin Inc., Stillwater, Minn.). Histology. Hearts were stained with collagen specific dye Sirius red for determination of fibrosis as reported elsewhere. (Young M et al. Am. J. Physiol 1995 269:[…]-[…]). Interstitial collagen was determined using an automated image analyzer. The hearts were also stained with hematoxylin and eosin for light microscopic analysis. Two or three slices of different sections of the heart containing both right and left ventricle were analyzed from each animal. […] Glomerular damage, when present, was characterized as the presence of either segmental or global sclerosis with ischemic or thrombotic changes. Renal arterial and arteriolar damage was categorized as the presence of fibrinoid necrosis of the vascular wall. The renal arterial and arteriolar profiles presenting damage were counted and the number of injured vessels per section was divided by the number of glomeruli in the same section in order to normalize for the amount of tissue examined. […] Statistical analysis. Data were tested for normality using the Kolmogorov-Smirnov test. Systolic blood pressure was analyzed using repeated measures-analysis of variance for time and treatment group. One-way analysis of variance was used for normally distributed data with one grouping variable. Post-hoc analysis was performed using Newman Keuls multiple-comparison test. Data that were not normally distributed were analyzed with the Kruskal-Wallis test. […]
# [2] = system: saline-loaded adrenalectomized rats treated with aldosterone; test: Antimineralocorticoid activity in saline-loaded adrenalectomized rats treated with aldosterone (Example A-2); type: in vivo
# Experimental: Methods: The antimineralocorticoid pharmacological activity was determined in saline-loaded adrenalectomized rats treated with aldosterone. […] Urinary sodium, potassium and water excretion were measured.
# [3] = system: saline-hydrated conscious dogs treated with aldosterone; test: Antimineralocorticoid action in saline-hydrated conscious dogs treated with aldosterone (Example A-2); type: in vivo; settings: aldosterone i.v. infusion; antagonist 10 mg/kg orally
# [4] = system: saline-loaded adrenalectomized rats treated with aldosterone; test: Subcutaneous vs. oral eplerenone in saline-loaded adrenalectomized rats treated with aldosterone (Example A-3); type: in vivo
# Experimental: Urinary sodium, potassium and water excretion were measured. The results are expressed as the ratio of excreted urinary sodium to potassium (Na/K)±SEM.
# [5] = system: uninephrectomized rats given 1% NaCl and aldosterone infusion; test: Volume expanded hypertensive rats, telemetry (Example A-4); type: in vivo; settings: 24 h average after three weeks
# [6] = system: older patients with systolic hypertension and/or widened pulse pressure; test: Eplerenone versus amlodipine in systolic hypertension in older people, 24 weeks (Examples A-19, D-8); type: in vivo, human
# Description: At Week 10 or thereafter, if SBP is =170 mmHg on two consecutive visits, one to three days apart, and the patient is on the maximum dose of study drug, he/she must be withdrawn. Patients will receive double-blind study medication for a total of 24 weeks. Table A-19A illustrates the above-described dosing scheme.
# Heart rate, BP, serum potassium levels, concomitant medications and adverse events will be assessed at each visit. […] Special studies: collagen markers [aminoterminal propeptide of type III procollagen (PIIINP), 7S domain of type IV collagen (7SIVC), and type I collagen telopeptide (ICTP)], plasma […] (PAI-1), tissue plasminogen activator (t-PA), microalbuminuria, and at selected sites, Ambulatory Blood Pressure Monitoring (ABPM) and arterial compliance will be done at Weeks 0, 14, and 24 or at Final Visit. Quality of Life Questionnaires will be done at visit 2A (beginning of single blind) and Weeks 0, 14, and 24 or at Final Visit. DNA genotyping will be performed at baseline.
# In older patients, elevated systolic BP and wide pulse pressure predict cardiovascular risk better than diastolic BP. Reduced vascular compliance and intraglomerular hypertension typically accompany isolated systolic hypertension in older people.
# Changes in arterial compliance, measured by pulse-wave velocity, microalbuminuria, and adverse effects (AEs) were assessed at baseline and after 24 weeks of therapy.
# hypertensive patients = test: Eplerenone vs. amlodipine, ambulatory blood pressure monitoring, 16 weeks (Example D-12); type: in vivo, human; settings: in vivo
# Description: This was a multicenter, randomized, double-blind, active-controlled, placebo run-in, parallel group study. […] If symptomatic hypotension occurred at Week 2 or Weeks 4, 6, 8, or 12 and the patient was on the lowest dose level (Dose Level 1), the patient was to be withdrawn. Study assessments at protocol-specified timepoints included BP, heart rate, ABPM, Holter recording, clinical laboratory analyses including serum potassium levels, concomitant medications. Throughout the study, safety was assessed by routine clinical laboratory analyses, vital signs, physical examinations, 12-lead ECG, and monitoring of adverse events.
# [7] = Dissolution rate and physical stability of solid state forms of eplerenone; type: physicochemical; settings: temperatures below the enantiotropic transition temperature, versus Form H
# [8] = after 24 weeks, titration-to-effect
smiles,measurement,setting,value
C[C@]12CCC(=O)C=C1CC[C@@H]1[C@@H]2[C@@H](O)C[C@]2(C=O)[C@@H](C(=O)CO)CC[C@@H]12 [Aldosterone],HW,[1]; end of experiment (day 14),951 ± 16 mg
same,HW/BW (cardiac hypertrophy index),[1]; end of experiment (day 14),3.57 ± .06 mg/g
same,SBP,[1]; end of experiment,192 ± 7 mmHg
same,Urinary Na/K ± SEM,[2]; aldosterone alone,1.68 ± 0.04
same,Na/K Ratio,[3],0.09
same,Urinary Excretion Potassium,[3],10.5 mmol/2 h
same,Urinary Excretion Sodium,[3],1.0 mmol/2 h
same,Mean Na/K,"[4]; Table A-3A, aldosterone alone",1.68
same,Mean Na/K,"[4]; Table A-3B, aldosterone alone",1.21
same,HR: Heart Rate,[5]; aldosterone & vehicle,346 ± 6 beats/min
same,SAP: Systolic arterial pressure,[5]; aldosterone & vehicle,202 ± 7 mmHg
"CCOC(=O)C1=C(COCCN)NC(C)=C(C(=O)OC)C1c1ccccc1Cl (centres unmarked) [Amlodipine, reference compound]",Edema rates (%),[6]; 24-week study,25.2%
same,peripheral edema frequency,[6]; 24 weeks,25.2%
same,reduction in pulse pressure,[6]; 24 weeks,−13.4 mmHg
same,symptoms with significant and clinically meaningful worsening in distress from Baseline (QoL),[6]; 24 weeks,21 symptoms
same,reduction in SBP,"[6]; 24 weeks, EPL 50-200 mg QD, AML 2.5-10 mg QD",−20.1 mmHg
same,Pulse Pressure (change),[6]; [8],−13.4 ± 0.95 mmHg
same,Systolic BP (change),[6]; [8],−20.1 ± 1.13 mmHg
same,safety and tolerability,[6]; in vivo,safe and well tolerated
same,Δ microalbuminuria (%),"[6]; only for patients with baseline microalbuminuria (>30 mg/g), 24 weeks",−10.4%
same,reduction in UACR,[6]; patients with baseline microalbuminuria (>30 mg/g),−3.3%
same,incidence of peripheral edema,hypertensive patients,greater incidence of peripheral edema
same,safety and tolerability,hypertensive patients,safe and well tolerated
COC(=O)[C@@H]1CC2=CC(=O)CC[C@]2(C)[C@@]23O[C@@H]2C[C@@]2(C)[C@@H](CC[C@@]24CCC(=O)O4)[C@H]13 [Form L],physical stability,[7],greater physical stability
CC(=O)S[C@@H]1CC2=CC(=O)CC[C@]2(C)[C@H]2CC[C@@]3(C)[C@@H](CC[C@@]34CCC(=O)O4)[C@H]12 [Spironolactone],Urinary Na/K ± SEM,[2]; aldosterone & antagonist 1 mg/kg by gavage,2.26 ± 0.25
same,Urinary Na/K ± SEM,[2]; aldosterone & antagonist 3 mg/kg by gavage,2.90 ± 0.25
same,Urinary Na/K ± SEM,[2]; aldosterone & antagonist 10 mg/kg by gavage,4.38 ± 0.26
same,Na/K Ratio,[3],1.7
same,Urinary Excretion Potassium,[3],7.4 ± 0.7 mmol/2 h
same,Urinary Excretion Sodium,[3],12.6 ± 2 mmol/2 h
same,Mean Na/K,"[4]; Table A-3A, aldosterone + antagonist 10 mg/100 g rat",1.56
same,Mean Na/K,"[4]; Table A-3A, aldosterone + antagonist 30 mg/100 g rat",3.02
same,Mean Na/K,"[4]; Table A-3A, aldosterone + antagonist 100 mg/100 g rat",4.02
same,HR: Heart Rate,[5]; aldosterone & antagonist 100 mg/kg s.c.,338 ± 4 beats/min
same,HR: Heart Rate,[5]; aldosterone & antagonist 200 mg/kg s.c.,336 ± 7 beats/min
